This passage reports CC50 and EC50 results from US10029984B2, “Mono- or di-substituted indole derivatives as dengue viral replication inhibitors” (Janssen Pharmaceuticals, Inc., priority 2015, dated 2018).

One data set deals with Vero cells. Briefly: in vitro. Type of data set: cell-based. As to conditions: African green monkey. As for the experimental part:
In parallel, the toxicity of the compounds was assessed on the same plates. Once the read-out for the eGFP signal was done, 10 μL of resazurin, a cell viability stain, was added to all wells of the 384-well plates. The resazurin assay is based on the reduction of the blue resazurin by NADH, produced by the cells, into the highly fluorescent product, resorufin. The formation of pink fluorescent resorufin is directly related to the number of viable cells in the well. The plates were incubated for an additional 5 hours in a fully humidified incubator (37° C., 5% CO2). Next, the plates were measured on an Infinite reader (Tecan) using an excitation wavelength of 530 nm. The half maximal cytotoxic concentration (CC50) was also determined, defined as the concentration required to reduce the resazurin conversion by 50% compared to that of the cell control wells. Finally, the selectivity index (SI) was determined for the compounds, which was calculated as followed: SI=CC50/EC50.

The test system of a further data set is DENV-2 16681 strain. The data set can be described thus: DENV-2 antiviral assay (eGFP-labeled virus in Vero cells). It is filed as cell-based, Dengue virus. Conditions: DENV-2 16681 eGFP, MOI 0.5, 3 days. As for the experimental part: The antiviral activity of all the compounds of the invention was tested against DENV-2 16681 strain which was labeled with enhanced green fluorescent protein (eGPF; Table 1). The culture medium consists of minimal essential medium supplemented with 2% of heat-inactivated fetal calf serum, 0.04% gentamycin (50 mg/mL) and 2 mM of L-glutamine. Vero cells, obtained from ECACC, were suspended in culture medium and 25 μL was added to 384-well plates (2500 cells/well), which already contain the antiviral compounds. Typically, these plates contain a 4-fold serial dilution of 9 dilution steps of the test compound at 200 times the final concentration in 100% DMSO (200 nL). In addition, each compound concentration is tested in quadruplicate (final concentration range: 25 μM-0.00038 μM). Finally, each plate contains wells which are assigned as virus controls (containing cells and virus in the absence of compound), cell controls (containing cells in the absence of virus and compound) and medium controls (containing medium in the absence of cells, virus and compounds). To the wells assigned as medium control, 25 μL of culture medium was added instead of Vero cells. Once the cells were added to the plates, the plates were incubated for 30 minutes at room temperature to allow the cells to distribute evenly within the wells. Next, the plates were incubated in a fully humidified incubator (37° C., 5% CO2) until the next day. Then, DENV-2 strain 16681, labeled with eGFP, was added at a multiplicity of infection (MOI) of 0.5. Therefore, 15 μL of virus suspension was added to all the wells containing test compound and to the wells assigned as virus control. In parallel, 15 μL of culture medium was added to the medium and cell controls. Next, the plates were incubated for 3 days in a fully humidified incubator (37° C., 5% CO2). At the day of the read out, the eGFP fluorescence was measured using an automated fluorescence microscope at 488 nm (blue laser). Using an in-house LIMS system, inhibition dose response curves for each compound were calculated and the half maximal effective concentration (EC50) was determined. Therefore, the percent inhibition (I) for every test concentration is calculated using the following formula: I=100*(ST−SCC)/(SVC−SCC); ST, SCC and SVC are the amount of eGFP signal in the test compound, cell control and virus control wells, respectively. The EC50 represents the concentration of a compound at which the virus replication is inhibited with 50%, as measured by a 50% reduction of the eGFP fluorescent intensity compared to the virus control. The EC50 is calculated using linear interpolation.

SMILES strings stand for the structures.

`COc1cc(NC(C(=O)c2c[nH]c3cc(F)ccc23)c2ccc(F)cc2OC)cc(S(C)(=O)=O)c1` (single isomer, unassigned) [Enantiomer 1B, 1-(6-fluoro-1H-indol-3-yl)-2-(4-fluoro-2-methoxyphenyl)-2-((3-methoxy-5-(methylsulfonyl)phenyl)amino)ethanone] had a CC50 in the data set with Vero cells of 12000 nM. The compound also gave an EC50 in the data set with DENV-2 16681 strain (listed as 1B) of 50 nM.
Take `COc1cc(NC(C(=O)c2c[nH]c3c(C)c(F)ccc23)c2ccc(F)cc2OC)cc(S(C)(=O)=O)c1` (single isomer, unassigned) [Enantiomer 2B, 2-(4-fluoro-2-methoxyphenyl)-1-(6-fluoro-7-methyl-1H-indol-3-yl)-2-((3-methoxy-5-(methylsulfonyl)phenyl)amino)ethanone]: it took 8000 nM to reach half-maximal cytotoxicity in the data set on Vero cells (CC50). This compound also registered an EC50 in the data set on DENV-2 16681 strain (listed as 2B) of 55 nM.
Take `COc1cc(NC(C(=O)c2c[nH]c3c(C)c(Cl)ccc23)c2ccc(F)cc2OC)cc(S(C)(=O)=O)c1` (single isomer, unassigned) [Enantiomer 3B, 1-(6-chloro-7-methyl-1H-indol-3-yl)-2-(4-fluoro-2-methoxyphenyl)-2-((3-methoxy-5-(methylsulfonyl)phenyl)amino)ethanone]: the CC50 with Vero cells was found to be 11000 nM. The compound further yielded an EC50 in the data set with DENV-2 16681 strain (listed as 3B) of 32 nM.
Regarding `COc1cc(NC(C(=O)c2c[nH]c3cc(Cl)ccc23)c2ccc(F)cc2OC)cc(S(C)(=O)=O)c1` (single isomer, unassigned) [Enantiomer 4B, 1-(6-chloro-1H-indol-3-yl)-2-(4-fluoro-2-methoxyphenyl)-2-((3-methoxy-5-(methylsulfonyl)phenyl)amino)ethanone], half-maximal cytotoxicity in the data set with Vero cells (CC50) was put at 16000 nM. Further, the EC50 with DENV-2 16681 strain (listed as 4B) was determined as 18 nM.
The compound `COc1cc(NC(C(=O)c2c[nH]c3c(F)cc(C)cc23)c2ccc(F)cc2OC)cc(S(C)(=O)=O)c1` (single isomer, unassigned) [Enantiomer 6B, 2-(4-fluoro-2-methoxyphenyl)-1-(7-fluoro-5-methyl-1H-indol-3-yl)-2-((3-methoxy-5-(methylsulfonyl)phenyl)amino)ethanone] had a CC50 with Vero cells of 12000 nM. Further, in the data set with DENV-2 16681 strain (listed as 6B), the midpoint of the response, the EC50, lay at 200 nM.
For the compound `COc1cc(NC(C(=O)c2c[nH]c3cc(F)c(F)cc23)c2ccc(F)cc2OC)cc(S(C)(=O)=O)c1` (single isomer, unassigned) [Enantiomer 7B, 1-(5,6-difluoro-1H-indol-3-yl)-2-(4-fluoro-2-methoxyphenyl)-2-((3-methoxy-5-(methylsulfonyl)phenyl)amino)ethanone], in the data set on Vero cells, half-maximal cytotoxicity (CC50) was put at 9600 nM. The response with DENV-2 16681 strain (listed as 7B) was half-maximal at 43 nM (EC50).
Turning to `COc1cc(NC(C(=O)c2c[nH]c3c(C)cc(F)cc23)c2ccc(F)cc2OC)cc(S(C)(=O)=O)c1` (single isomer, unassigned) [Enantiomer 8B, 2-(4-fluoro-2-methoxyphenyl)-1-(5-fluoro-7-methyl-1H-indol-3-yl)-2-((3-methoxy-5-(methylsulfonyl)phenyl)amino)ethanone], the CC50 in the data set on Vero cells was 11000 nM. Also, the EC50 with DENV-2 16681 strain (listed as 8B) worked out at 240 nM.
`COc1cc(NC(C(=O)c2c[nH]c3cc(C)c(F)cc23)c2ccc(F)cc2OC)cc(S(C)(=O)=O)c1` (single isomer, unassigned) [Enantiomer 9B, 2-(4-fluoro-2-methoxyphenyl)-1-(5-fluoro-6-methyl-1H-indol-3-yl)-2-((3-methoxy-5-(methylsulfonyl)phenyl)amino)ethanone] returned a 50% cytotoxic concentration (CC50) in the data set on Vero cells of 21000 nM. The same compound had an EC50 with DENV-2 16681 strain (listed as 9B) of 98 nM.
In turn, `COc1cc(NC(C(=O)c2c[nH]c3cc(OC)c(C)cc23)c2ccc(F)cc2OC)cc(S(C)(=O)=O)c1` (single isomer, unassigned) [Enantiomer 10A, 2-(4-fluoro-2-methoxyphenyl)-2-((3-methoxy-5-(methylsulfonyl)phenyl)amino)-1-(6-methoxy-5-methyl-1H-indol-3-yl)ethanone] displayed a CC50 in the data set on Vero cells of 18000 nM. In the data set with DENV-2 16681 strain (listed as 10A), this compound displayed an EC50 of 54 nM.
In turn, `COc1cc(NC(C(=O)c2c[nH]c3cc(OC)c(F)cc23)c2ccc(F)cc2OC)cc(S(C)(=O)=O)c1` (single isomer, unassigned) [Enantiomer 11B, 2-(4-fluoro-2-methoxyphenyl)-1-(5-fluoro-6-methoxy-1H-indol-3-yl)-2-((3-methoxy-5-(methylsulfonyl)phenyl)amino)ethanone] came in with a CC50 with Vero cells greater than 25000 nM. Further, in the data set with DENV-2 16681 strain (listed as 11B), the EC50 was determined as 55 nM.
Compound `COc1cc(NC(C(=O)c2c[nH]c3c(Cl)c(OC)ccc23)c2ccc(F)cc2OC)cc(S(C)(=O)=O)c1` (single isomer, unassigned) [Enantiomer 12B, 1-(7-chloro-6-methoxy-1H-indol-3-yl)-2-(4-fluoro-2-methoxyphenyl)-2-((3-methoxy-5-(methylsulfonyl)phenyl)amino)ethanone] registered a CC50 in the data set with Vero cells greater than 25000 nM. Also, in the data set with DENV-2 16681 strain (listed as 12B), a half-maximal effect (EC50) was put at 21 nM.
In the data set with Vero cells, `COc1cc(NC(C(=O)c2c[nH]c3cc(F)c(C)cc23)c2ccc(F)cc2OC)cc(S(C)(=O)=O)c1` (single isomer, unassigned) [Enantiomer 14B, 2-(4-fluoro-2-methoxyphenyl)-1-(6-fluoro-5-methyl-1H-indol-3-yl)-2-((3-methoxy-5-(methylsulfonyl)phenyl)amino)ethanone] yielded a CC50 of 11000 nM. Moreover, it took 41 nM to reach a half-maximal effect in the data set with DENV-2 16681 strain (listed as 14B) (EC50).
Compound `COc1cc(NC(C(=O)c2c[nH]c3ccc(C)cc23)c2ccc(F)cc2OC)cc(S(C)(=O)=O)c1` (single isomer, unassigned) [Enantiomer 15B, 2-(4-fluoro-2-methoxyphenyl)-2-((3-methoxy-5-(methylsulfonyl)phenyl)amino)-1-(5-methyl-1H-indol-3-yl)ethanone] had a half-maximal cytotoxic concentration (CC50) with Vero cells of 17000 nM. Also, the EC50 with DENV-2 16681 strain (listed as 15B) stood at 73 nM.
Consider `COc1cc(NC(C(=O)c2c[nH]c3cc(OC)c(Cl)cc23)c2ccc(F)cc2OC)cc(S(C)(=O)=O)c1` (single isomer, unassigned) [Enantiomer 16B, 1-(5-chloro-6-methoxy-1H-indol-3-yl)-2-(4-fluoro-2-methoxyphenyl)-2-((3-methoxy-5-(methylsulfonyl)phenyl)amino)ethanone], for which the CC50 in the data set on Vero cells is 22000 nM. The EC50 in the data set with DENV-2 16681 strain (listed as 16B) was 13 nM.
Take `COc1cc(NC(C(=O)c2c[nH]c3ccc(C(F)(F)F)cc23)c2ccc(F)cc2OC)cc(S(C)(=O)=O)c1` (single isomer, unassigned) [Enantiomer 17A, 2-(4-fluoro-2-methoxyphenyl)-2-((3-methoxy-5-(methylsulfonyl)phenyl)amino)-1-(5-(trifluoromethyl)-1H-indol-3-yl)ethanone]: in the data set with Vero cells, half-maximal cytotoxicity (CC50) was put at 14000 nM. Besides, a half-maximal response in the data set on DENV-2 16681 strain (listed as 17A) (EC50) required 38 nM.
For the compound `COc1cc(NC(C(=O)c2c[nH]c3ccc(OC(F)(F)F)cc23)c2ccc(F)cc2OC)cc(S(C)(=O)=O)c1` (single isomer, unassigned) [Enantiomer 18B, 2-(4-fluoro-2-methoxyphenyl)-2-((3-methoxy-5-(methylsulfonyl)phenyl)amino)-1-(5-(trifluoromethoxy)-1H-indol-3-yl)ethanone], the CC50 in the data set on Vero cells is 10000 nM. This compound yielded an EC50 with DENV-2 16681 strain (listed as 18B) of 9.2 nM.

One may read the CC50 as the concentration giving 50% cytotoxicity. As usually defined, the EC50 is the concentration needed to bring the measured effect to its halfway point.
